Data published in patent US20260125382A1, “COMPOUNDS FOR INHIBITING OR DEGRADING CDK2 AND/OR CDK9 AND MEDICINAL USE THEREOF” (KOREA RESEARCH INSTITUTE OF CHEMICAL TECHNOLOGY, priority 2022, published 2026).

Legend:
CDK2 = molecular target: T1, CDK2 (Homo sapiens, UniProt P24941); experiment: CDK protein degradation activity (Western blotting), CDK2; format: cell-based; details: MDA-MB-231 cells, 16 hours, Western blot
T1 construct: endogenous in cells; host or cells: MDA-MB-231
Summary of the method: (§1)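 Breast cancer line MDA-MB-231, 16 h compound treatment (100 nM–10 μM final, three doses). Immunoblot quantification of CDK2/CDK9 versus tubulin, normalized to DMSO control.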

CDK9 = molecular target: T2, CDK9 (Homo sapiens, UniProt P50750); experiment: CDK protein degradation activity (Western blotting), CDK9; format: cell-based; details: MDA-MB-231 cells, 16 hours, Western blot
T2 construct: endogenous in cells; host or cells: MDA-MB-231
Summary of the method: as §1

T2 sequence (P50750 whole entry): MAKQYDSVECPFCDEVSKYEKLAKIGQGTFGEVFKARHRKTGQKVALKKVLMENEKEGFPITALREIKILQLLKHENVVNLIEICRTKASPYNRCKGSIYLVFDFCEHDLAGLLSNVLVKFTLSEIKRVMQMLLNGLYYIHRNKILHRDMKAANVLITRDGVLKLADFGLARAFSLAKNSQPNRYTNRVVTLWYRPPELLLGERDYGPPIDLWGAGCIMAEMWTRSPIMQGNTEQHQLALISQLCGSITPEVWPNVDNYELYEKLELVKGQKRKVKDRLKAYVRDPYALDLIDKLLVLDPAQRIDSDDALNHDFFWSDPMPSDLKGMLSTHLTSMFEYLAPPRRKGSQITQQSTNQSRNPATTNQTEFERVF

Structure (SMILES)	Enzyme degradation CDK2 (% remaining) @ 0.1 μM (CDK2)	Enzyme degradation CDK2 (% remaining) @ 1 μM (CDK2)	Enzyme degradation CDK2 (% remaining) @ 10 μM (CDK2)	Enzyme degradation CDK9 (% remaining) @ 0.1 μM (CDK9)	Enzyme degradation CDK9 (% remaining) @ 1 μM (CDK9)	Enzyme degradation CDK9 (% remaining) @ 10 μM (CDK9)
Cc1cccc(C(=O)NC2CC(n3cnc4c(Nc5ccc(N6CCN(C7CC8(CCN(C(=O)C9CCN(c%10ccc%11c(c%10)C(=O)N([C@H]%10CCC(=O)NC%10=O)C%11=O)CC9)CC8)C7)CC6)cc5)ncnc43)C2)n1 (stereo partly drawn) [Compound 403, N-((1s,3s)-3-(6-((4-(4-(7-(1-(2-(2,6-dioxopiperidin-3-yl)-1,3-dioxoisoindolin-5-yl)piperidin-4-carbonyl)-7-azaspiro[3.5]nonan-2-yl)piperazin-1-yl)phenyl)amino)-9H-purin-9-yl)cyclobutyl)-6-methylpicolinamide]	60%	60%	90%	0/0/0%	0/0/0%	0/0/0%
O=C1CC[C@H](N2C(=O)c3ccc(N4CCC(CN5CCC(CNc6ncnc7c6ncn7C6CC(NC(=O)Cc7ccccc7)C6)CC5)CC4)cc3C2=O)C(=O)N1 (stereo partly drawn) [Compound 181, N-((1s,3s)-3-(6-(((1-((1-(2-(2,6-dioxopiperidin-3-yl)-1,3-dioxoisoindolin-5-yl)piperidin-4-yl)methyl)piperidin-4-yl)methyl)amino)-9H-purin-9-yl)cyclobutyl)-2-phenylacetamide]	40%	30%	50%	50%	40%	0%
O=C1CC[C@@H](c2cccc(OCC(=O)N3CCC(CN4CCN(c5ccc(Nc6ncnc7c6ncn7C6CC(NC(=O)Cc7ccccc7)C6)cc5)CC4)CC3)c2)C(=O)N1 (stereo partly drawn) [Compound 225, N-((1s,3s)-3-(6-((4-(4-((1-(2-(3-(2,6-dioxopiperidin-3-yl)phenoxy)acetyl)piperidin-4-yl)methyl)piperazin-1-yl)phenyl)amino)-9H-purin-9-yl)cyclobutyl)-2-phenylacetamide]	10%	20%	40%	30%	0%	0%
O=C1CC[C@H](N2C(=O)C=C(N3CCC(C(=O)N4CCC(CN5CCN(c6ccc(Nc7ncnc8c7ncn8[C@H]7C[C@@H](NC(=O)Cc8ccccc8)C7)cc6)CC5)CC4)CC3)C2=O)C(=O)N1 [Compound 189, N-((1s,3s)-3-(6-((4-(4-((1-(1-(1-(2,6-dioxopiperidin-3-yl)-2,5-dioxo-2,5-dihydro-1H-pyrrol-3-yl)piperidin-4-carbonyl)piperidin-4-yl)methyl)piperazin-1-yl)phenyl)amino)-9H-purin-9-yl)cyclobutyl)-2-phenylacetamide]	30%	20%	40%	0/0/0%	0/0/0%	0/0/0%
O=C1CC[C@H](N2C(=O)c3ccc(N4CCC(C(=O)N5CCC6(CC5)CC(N5CCN(c7ccc(Nc8ncnc9c8ncn9[C@H]8C[C@@H](NC(=O)c9c(Cl)cccc9Cl)C8)cc7)CC5)C6)CC4)cc3C2=O)C(=O)N1 [Compound 376, 2,6-dichloro-N-((1s,3s)-3-(6-((4-(4-(7-(1-(2-(2,6-dioxopiperidin-3-yl)-1,3-dioxoisoindolin-5-yl)piperidin-4-carbonyl)-7-azaspiro[3.5]nonan-2-yl)piperazin-1-yl)phenyl)amino)-9H-purin-9-yl)cyclobutyl)benzamide]	30/30/30%	30/30/30%	30/30/30%	10/10/10%	10/10/10%	10/10/10%
Cc1cccc(C(=O)NC2CC(n3cnc4c(Nc5ccc(N6CCN(CCC7CCN(c8cc9c(cc8F)C(=O)N([C@H]8CCC(=O)NC8=O)C9=O)CC7)CC6)cc5)ncnc43)C2)n1 (stereo partly drawn) [Compound 381, N-((1s,3s)-3-(6-((4-(4-(2-(1-(2-(2,6-dioxopiperidin-3-yl)-6-fluoro-1,3-dioxoisoindolin-5-yl)piperidin-4-yl)ethyl)piperazin-1-yl)phenyl)amino)-9H-purin-9-yl)cyclobutyl)-6-methylpicolinamide]	30%	20%	20%	0/0/0%	0/0/0%	0/0/0%
O=C1CC[C@H](n2nnc3ccc(N4CCC(CN5CCN(c6ccc(Nc7ncnc8c7ncn8C7CC(NC(=O)c8c(Cl)cccc8Cl)C7)cc6)CC5)CC4)cc3c2=O)C(=O)N1 (stereo partly drawn) [Compound 371, 2,6-dichloro-N-((1s,3s)-3-(6-((4-(4-((1-(3-(2,6-dioxopiperidin-3-yl)-4-oxo-3,4-dihydrobenzo[d][1,2,3]triazin-6-yl)piperidin-4-yl)methyl)piperazin-1-yl)phenyl)amino)-9H-purin-9-yl)cyclobutyl)benzamide]	0/0/0%	0/0/0%	0/0/0%	0/0/0%	0/0/0%	0/0/0%
O=C1CC[C@H](N2C(=O)c3ccc(N4CCC(CN5CCN(c6ccc(Nc7ncnc8c7ncn8C7CC(NC(=O)c8c(Cl)cccc8Cl)C7)cc6)CC5)CC4)cc3C2=O)C(=O)N1 (stereo partly drawn) [Compound 166, 2,6-dichloro-N-((1s,3s)-3-(6-((4-(4-((1-(2-(2,6-dioxopiperidin-3-yl)-1,3-dioxoisoindolin-5-yl)piperidin-4-yl)methyl)piperazin-1-yl)phenyl)amino)-9H-purin-9-yl)cyclobutyl)benzamide]	10%	20%	20%	0/0/0%	0/0/0%	0/0/0%
O=C1CC[C@H](N2C(=O)c3ccc(N4CCC(C(=O)N5CCC(CCCN6CCN(c7ccc(Nc8ncnc9c8ncn9C8CC(NC(=O)Cc9ccccc9)C8)cc7)CC6)CC5)CC4)cc3C2=O)C(=O)N1 (stereo partly drawn) [Compound 354, N-((1s,3s)-3-(6-((4-(4-(3-(1-(1-(2-(2,6-dioxopiperidin-3-yl)-1,3-dioxoisoindolin-5-yl)piperidin-4-carbonyl)piperidin-4-yl)propyl)piperazin-1-yl)phenyl)amino)-9H-purin-9-yl)cyclobutyl)-2-phenylacetamide]	50%	50%	60%	10/10/10%	10/10/10%	10/10/10%
O=C1CC[C@H](N2C(=O)c3ccc(N4CCC5(CC4)CC(N4CCN(c6ccc(Nc7ncnc8c7ncn8C7CC(NC(=O)c8c(Cl)cccc8Cl)C7)cc6)CC4)C5)cc3C2=O)C(=O)N1 (stereo partly drawn) [Compound 315, 2,6-dichloro-N-((1s,3s)-3-(6-((4-(4-(7-(2-(2,6-dioxopiperidin-3-yl)-1,3-dioxoisoindolin-5-yl)-7-azaspiro[3.5]nonan-2-yl)piperazin-1-yl)phenyl)amino)-9H-purin-9-yl)cyclobutyl)benzamide]	10%	20%	30%	0/0/0%	0/0/0%	0/0/0%
Cc1cccc(C(=O)N[C@H]2C[C@H](n3cnc4c(NCC5CCN(CC6CCN(C(=O)CNc7cccc8c7C(=O)N(C7CCC(=O)NC7=O)C8=O)CC6)CC5)ncnc43)C2)n1 (stereo partly drawn) [Compound 75, N-((1r,3r)-3-(6-(((1-((1-((2-(2,6-dioxopiperidin-3-yl)-1,3-dioxoisoindolin-4-yl)glycyl)piperidin-4-yl)methyl)piperidin-4-yl)methyl)amino)-9H-purin-9-yl)cyclobutyl)-6-methylpicolinamide]	20%	10%	30%	0%	0%	10%
Cc1cccc(C(=O)N[C@H]2C[C@@H](n3cnc4c(NCc5ccc(OCCCN6CCN(C(=O)CNc7cccc8c7C(=O)N([C@H]7CCC(=O)NC7=O)C8=O)CC6)cc5)ncnc43)C2)n1 [Compound 115, N-((1s,3s)-3-(6-((4-(3-(4-((2-(2,6-dioxopiperidin-3-yl)-1,3-dioxoisoindolin-4-yl)glycyl)piperazin-1-yl)propoxy)benzyl)amino)-9H-purin-9-yl)cyclobutyl)-6-methylpicolinamide]	30%	40%	50%	0/0/0%	0/0/0%	0/0/0%
